# According to publication PMC9831672 (Journal of the American Chemical Society, 2022):
# Molecular target: NotF (Aspergillus sp. MF297-2, UniProt E0Y3X1)
# Type: binding
# Conditions: ternary complex with brevianamide F; non-hydrolysable DMAPP analogue
# Chain of NotF (E0Y3X1 whole entry): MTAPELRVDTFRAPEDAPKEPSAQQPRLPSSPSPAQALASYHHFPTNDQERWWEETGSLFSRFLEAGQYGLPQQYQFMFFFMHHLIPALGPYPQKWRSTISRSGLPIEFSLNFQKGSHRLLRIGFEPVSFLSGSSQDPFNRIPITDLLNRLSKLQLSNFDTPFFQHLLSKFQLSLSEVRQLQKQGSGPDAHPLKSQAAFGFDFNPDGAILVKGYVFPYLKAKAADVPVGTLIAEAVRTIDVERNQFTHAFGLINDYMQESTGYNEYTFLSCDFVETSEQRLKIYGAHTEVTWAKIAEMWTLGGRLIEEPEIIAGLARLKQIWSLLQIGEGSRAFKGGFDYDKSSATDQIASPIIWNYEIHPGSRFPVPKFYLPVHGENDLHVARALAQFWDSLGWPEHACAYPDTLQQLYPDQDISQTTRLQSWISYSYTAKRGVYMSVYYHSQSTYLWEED
structure (smiles),measurement,value
CC(C)=CCSP(=O)(O)OP(=O)(O)O [dimethylallyl S-thiolodiphosphate],"X-ray crystal structure (3.0 A), co-crystallisation","a non-hydrolysable DMAPP analog, dimethylallyl S-thiolodiphosphate (DMSPP), was determined"
